Source: patent publication EP1561465A2, “Methods of use of fluoroquinolone compounds against bacteria” (LG Life Sciences, Ltd., priority 1999, dated 2001)
Converted amounts (≈) assume the structure as drawn. Where two headings read alike, the source gives them in different places.

How the values were obtained:
[1] = tested on: Gram positive anaerobic and facultative anaerobic pathogens; test: microbe, parasite or virus in culture; type: cell-based
[2] = tested on: K. pneumoniae; test: Urinary bactericidal titers (UBT) and AUBTC of volunteers' urine; type: cell-based; conditions: K. pneumoniae (16) Laboratory No. 595; urine after gemifloxacin 320 mg or ofloxacin 400 mg
[3] = tested on: Escherichia coli; test: MIC by NCCLS broth microdilution, 1100 Japanese clinical isolates 1997-1998; type: cell-based; conditions: for MIC50 / MIC90: Escherichia coli
[4] = tested on: E. coli; test: Urinary bactericidal titers (UBT) and AUBTC of volunteers' urine; type: cell-based; conditions: for AUBTC (range): urine after gemifloxacin 320 mg or ofloxacin 400 mg
[5] = tested on: Yersinia enterocolitica; test: MIC by agar dilution (NCCLS M7-A4), 288 enteropathogenic isolates, eight quinolones; type: cell-based; conditions: Yersinia enterocolitica (n = 22)
[6] = tested on: S. aureus; test: MIC and MBC by microdilution in Mueller-Hinton broth, uropathogens; type: cell-based; conditions: Staphylococcus aureus
Description: (§1) MICs and MBCs were determined by a microdilution method with Mueller-Hinton broth. An inoculum of 1.3-9.4 x 10^5 colony forming units (CFU) per ml was used.
(§2) Strains included a reference strain E. coli ATCC 25922, susceptible to nalidixic acid (Nal-S) and the following clinical isolates obtained from complicated UTI patients: E. coli (resistant to nalidixic acid), K. pneumoniae, P. mirabilis , P. aeruginosa, […] (3 strains) and Enterococcus faecalis (2 strains).

[7] = tested on: P. aeruginosa; test: as above; type: cell-based
Description: as §1, §2

[8] = tested on: K. pneumoniae; test: as above; type: cell-based
Description: as §1, §2

[9] = tested on: P. mirabilis; test: as above; type: cell-based
Description: as §1, §2

[10] = tested on: E. faecalis; test: as above; type: cell-based; conditions: Enterococcus faecalis
Description: as §1, §2

[11] = tested on: E. faecalis; test: Urinary bactericidal titers (UBT) and AUBTC of volunteers' urine; type: cell-based; conditions: urine after gemifloxacin 320 mg or ofloxacin 400 mg
[12] = design: species or system healthy volunteers; conditions: human, in vivo, po
[13] = tested on: Haemophilus influenzae; test: MIC by agar dilution (NCCLS), 411 isolates Buenos Aires 1998-99; type: cell-based; conditions: Haemophilus influenzae (n = 65)
[14] = MIC by agar dilution, Brucella HK agar, 491 anaerobic clinical isolates; type: cell-based
[15] = tested on: Streptococcus pyogenes; test: MIC by agar dilution (NCCLS), 411 isolates Buenos Aires 1998-99; type: cell-based; conditions: Streptococcus pyogenes (n = 69)
[16] = Escherichia coli ciprofloxacin susceptible (n=37)
[17] = S. aureus Laboratory No. 83, inoculum 7.1 CFU 10^5/ml
[18] = S. aureus Laboratory No. 161, inoculum 9.4 CFU 10^5/ml
[19] = S. aureus Laboratory No. 636, inoculum 5.6 CFU 10^5/ml
[20] = E. faecalis Laboratory No. 55, inoculum 6.0 CFU 10^5/ml
[21] = E. faecalis Laboratory No. 60, inoculum 7.0 CFU 10^5/ml

CO/N=C1\CN(c2nc3c(cc2F)c(=O)c(C(=O)O)cn3C2CC2)CC1CN (racemic) [Gemifloxacin, (R,S)-7-(3-aminomethyl-4-methoxyiminopyrrolidin-1-yl)-1-cyclopropyl-6-fluoro-4-oxo-1,4-dihydro-1,8-naphthyridine-3-carboxylic acid]
MIC ([1]; Peptoniphilus indolicus): ≤ 0.03 µg/mL
MIC ([1]; Peptostreptococcus anaerobius, ATCC27337): 0.06 µg/mL (≈ 0.154 µM)
MIC ([1]; Schaalia odontolytica): 4 µg/mL (≈ 10.3 µM)
MIC ([1]; Staphylococcus saccharolyticus, ATCC14953): ≤ 0.03 µg/mL
MIC ([1]; Streptococcus constellatus, ATCC27823): ≤ 0.03 µg/mL
MIC ([1]; Streptococcus intermedius, ATCC27335): 0.06 µg/mL (≈ 0.154 µM)
MIC ([1]; Thomasclavelia ramosa, ATCC25582): 0.5 µg/mL (≈ 1.28 µM)
AUBTC (range) [2]: 321 (72-564)
MIC Range [3, 16]: ≤8 to 125 ng/mL
MIC50 ([3]; Escherichia coli ciprofloxacin resistant (n=5)): 32 µg/mL (≈ 82.2 µM)
MIC90 ([3]; Escherichia coli ciprofloxacin resistant (n=5), values marked *: MIC80 value): 32 µg/mL (≈ 82.2 µM)
MIC50 [3, 16]: ≤ 0.008 µg/mL
MIC90 [3, 16]: 0.032 µg/mL (≈ 0.0822 µM)
AUBTC (range) ([4]; E. coli (16) ATCC 25922): 546 (174-816)
AUBTC (range) ([4]; E. coli (16) Laboratory No. 523): 237(48-384)
time for which median UBTs exceed 0 ([4]; reference strain E. coli ATCC 25922, 320 mg gemifloxacin / 400 mg ofloxacin): 5 days
% Susceptible [5]: 100%
MIC50 [5]: 0.03 µg/mL (≈ 0.077 µM)
MIC90 [5]: 0.03 µg/mL (≈ 0.077 µM)
MIC Range [5]: ≤0.015 to 0.12 µg/mL
MBC [6, 17]: 0.008 µg/mL (≈ 0.0205 µM)
MIC [6, 17]: 0.008 µg/mL (≈ 0.0205 µM)
MBC [6, 18]: 0.25 µg/mL (≈ 0.642 µM)
MIC [6, 18]: 0.25 µg/mL (≈ 0.642 µM)
MBC [6, 19]: 2 µg/mL (≈ 5.14 µM)
MIC [6, 19]: 2 µg/mL (≈ 5.14 µM)
MIC ([6]; S. aureus isolate (0.008/0.25)): 0.008 µg/mL (≈ 0.0205 µM)
MIC ([6]; S. aureus isolate (0.25/4)): 0.25 µg/mL (≈ 0.642 µM)
MIC ([6]; S. aureus isolate (2/32), quinolone-resistant): 2 µg/mL (≈ 5.14 µM)
MIC ([7]; P. aeruginosa Laboratory No. 568, inoculum 5.6 CFU 10^5/ml): 1 µg/mL (≈ 2.57 µM)
MBC ([7]; Pseudomonas aeruginosa, P. aeruginosa Laboratory No. 568, inoculum 5.6 CFU 10^5/ml): 2 µg/mL (≈ 5.14 µM)
MIC ([7]; Pseudomonas aeruginosa, P. aeruginosa clinical isolate, read-out: MIC): 1 µg/mL (≈ 2.57 µM)
MIC ([8]; K. pneumoniae Laboratory No. 595, inoculum 3.7 CFU 10^5/ml): 0.03 µg/mL (≈ 0.077 µM)
MBC ([8]; Klebsiella pneumoniae, K. pneumoniae Laboratory No. 595, inoculum 3.7 CFU 10^5/ml): 0.03 µg/mL (≈ 0.077 µM)
MIC ([8]; Klebsiella pneumoniae, K. pneumoniae clinical isolate, read-out: MIC): 0.03 µg/mL (≈ 0.077 µM)
MIC ([9]; P. mirabilis Laboratory No. 414, inoculum 2.5 CFU 10^5/ml): 0.125 µg/mL (≈ 0.321 µM)
MIC ([9]; Proteus mirabilis): 0.125 µg/mL (≈ 0.321 µM)
MBC ([9]; Proteus mirabilis, P. mirabilis Laboratory No. 414, inoculum 2.5 CFU 10^5/ml): 0.25 µg/mL (≈ 0.642 µM)
MBC [10, 20]: 2 µg/mL (≈ 5.14 µM)
MIC [10, 20]: 0.5 µg/mL (≈ 1.28 µM)
MBC [10, 21]: 0.06 µg/mL (≈ 0.154 µM)
MIC [10, 21]: 0.06 µg/mL (≈ 0.154 µM)
MIC ([10]; E. faecalis isolate (0.06/2)): 0.06 µg/mL (≈ 0.154 µM)
MIC ([10]; E. faecalis isolate (0.5/32)): 0.5 µg/mL (≈ 1.28 µM)
AUBTC (range) ([11]; E. faecalis (13) Laboratory No. 55): 39 (0-102)
AUBTC (range) ([11]; E. faecalis (16) Laboratory No. 60): 246 (96-516)
tolerability [12]: well tolerated
MIC90 [13]: 8 ng/mL (≈ 0.0205 µM)
MIC Range [13]: ≤4 to 125 ng/mL
MIC90 ([14]; clinical isolates of Bacteroides spp., Prevotella bivia and other Prevotella spp.): 8 to 32 µg/mL (≈ 20.5 to 82.2 µM)
MIC ([14]; read-out: MIC90s): 0.125 to 0.5 µg/mL (≈ 0.321 to 1.28 µM)
MIC Range [15]: ≤4 to 125 ng/mL
MIC90 ([15]; read-out: MIC90): 0.03 µg/mL (≈ 0.077 µM)
